Among the data in patent US5420276A, “Analogs of oxetanyl purines and pyrimidines” (Abbott Laboratories, priority 1993, dated 1995) are EC50 and IC50 values, retold here.

Converted amounts (≈) assume the structure as drawn.

Test [1] concerns Herpes Simplex Virus Type 1. As to the kind of experiment: Neutral red dye uptake assay for antiviral activity, HSV-1 in Vero cells. The following applies: Human alphaherpesvirus 1, HSV-1, Vero, concentration at which 50% CPE would be observed, read-out: MIC50. The test is classed as cell-based. The method, then:
Vero cell monolayers were harvested by trypsinization. The number of viable cells per ml. was determined by staining an aliquot with trypan blue and counting in a hemocytometer. Cell densities were adjusted in growth medium to contain 4×10^5 cells/mi. 96-well sterile tissue culture plates were seeded with 100 μl/well of the adjusted cell suspensions, i.e., 4×10^4 cells/well. Seeded plates were incubated overnight at 37° C. with CO2.
After overnight incubation, monolayers were approximately confluent. The growth medium was removed and the monolayers in each cell were infected with 100 μl of virus diluted in maintenance medium to produce approximately 90% cytopathogenic effect (CPE) after 2 to 3 days incubation. The virus was allowed to adsorb for 1 hour at 37° C. with 4 to 6% CO2. Controls for cell growth were overlayed with virus-free maintenance medium. The maintenance medium containing residual virus was removed.
The test compounds were dissolved and/or diluted in maintenance medium to the concentration desired for testing and were added to the wells of the plate. Aliquots (100 μl ) of each concentration were added to wells in replicate (duplicate or triplicate). Controls for virus activity were overlayed with drug-free maintenance medium. Replicate wells containing only maintenance medium served as controls for background absorbance levels.
After incubation, the medium was removed from all the wells. 100 μl of neutral red solution was added to each well and the plate was incubated at 37° C. without CO2 for 2 hours. After the 2 hour incubation, the excess neutral red solution was removed. […]
The neutral red stain taken up by the viable cells was extracted by adding 100 μl/well of acidified methanol, pH 1.0. […] The amount of neutral red stain extracted into the methanol was quantified by determining the absorbance at a wavelength of 540 nm.
The percent CPE in virus controls was determined by the following formula: [formula]
The percent CPE in cells infected with virus and treated with the test compound was determined by the following formula: [formula] […]

In test [2] the test system is HSV-1 (E-377). In words: CPE inhibition assay (MTT), HSV-1 (E-377) in Vero cells. In kind it is cell-based, herpes simplex virus type 1. The settings on record: Human alphaherpesvirus 1, inhibited CPE by 50%. Here is the method:
Vero cells were pregrown as monolayers in wells of COSTAR 96-well tissue culture plates using suitable cell culture media. Stock viruses were pretitered according to the method of Reed and Muench (Amer. J. Hyg. 27 493 (1938)) and diluted in cell culture medium to yield 32 CCID50 (cell culture infectious dose, 50%) units per 0.1 mL. Antiviral assays were designed to test six concentrations of each compound, from cytotoxic to noncytotoxic levels, in triplicate against each of the challenge viruses in microtiter plate wells containing cell monolayers. To each of the replicate cell cultures were added 0.1 mL of the test-compound solution and 0.1 mL of virus suspension. Two compounds were evaluated per plate. The following controls were included:
(1) Cell controls containing cells+medium;
(2) Untreated, virus-infected cell controls;
(3) Test-compound cytotoxicity controls containing uninfected, test-compound treated cells;
(4) Test-compound color controls-test-compound+medium (no cells); and
(5) Reagent (experiment medium) controls-medium only (no cells).
The covered plates were incubated at 37° C. in a humidified atmosphere containing 2% CO2. When cytopathogenic effect (CPE) in untreated virus control wells reached 100%, 20 μL of 3-(4,5-dimethyl-thiazol-2-yl)-2,5-diphenyl tetrazolium bromide (MTT) (dissolved in PBS at 5 mg/mL) was pipetted into each of the plate wells. The plates were incubated at 37° C. for six hours; then 40 μL of 30% SDS (in 0.02N HCl) was added to each well. After overnight incubation at 37° C., the blue color or the MTT formazan was measured spectrophotometrically at 570 nm. The optical density (OD) value of each culture is a function of the amount of formazan produced which is proportional to the number of viable cells. A computer program was utilized to calculate the percent (CPE) reciprocal of % CPE reduction) of the virus-infected wells and % cell viability of the uninfected test-compound control wells.
The IC50 value is the minimum test-compound concentration (μg/mL) that inhibited CPE by 50% calculated by using a regression analysis program for semilog curve fitting. The TC25 value is the minimum test-compound concentration (μg/mL) that reduced cell viability by 25%.

In the case of `O=c1[nH]c(=O)n([C@@H]2O[C@H](CO)[C@H]2CO)cc1C=CBr` [Example 44, 1-([2'R, 3'R, 4'S]-3',4'-Bis(hydroxymethyl)-2'-oxetanyl)-5-(2-bromo-1-vinyl)uracil], the EC50 in test [1] stood at 0.09 µg/mL (≈ 0.27 µM). In test [2], the concentration for half-maximal inhibition (IC50) came to 0.072 µg/mL (≈ 0.216 µM).

A word on the IC50: it is the concentration needed to halve the response being measured.
